Test results published in patent US11434221B2, “Pyrazine-4-carbamate or -urea derivatives as herbicides” (Syngenta Participations AG, priority 2017, dated 2022).

What was measured:
Format in all cases: in vivo
Design in all cases: key: 5=total damage to plant; 0=no damage to plant
[1] = tested on: Alopecurus myosuroides (ALOMY); experiment: Pre-emergence herbicidal activity, glasshouse pot test; details: Rate 1000 g/ha; sprayed one day after sowing; evaluated after 13 days
Description: (§1) Seeds of a variety of test species were sown in standard soil in pots: Triticum aestivium (TRZAW), Avena fatua (AVEFA), Alopecurus myosuroides (ALOMY), Echinochloa crus-galli (ECHCG), Lolium perenne (LOLPE), and Setaria faberi (SETFA). After cultivation for one day (pre-emergence) under controlled conditions in a glasshouse (at 24/16° C., day/night; 14 hours light; 65% humidity), the plants were sprayed with an aqueous spray solution derived from the formulation of the technical active ingredient in acetone/water (50:50) solution containing 0.5% Tween 20 (polyoxyethelyene sorbitan monolaurate, CAS RN 9005-64-5). The test plants were then grown in a glasshouse under controlled conditions (at 24/16° C., day/night; 14 hours light; 65% humidity) and watered twice daily. After 13 days, the test was evaluated (5=total damage to plant; 0=no damage to plant).

Avena fatua (AVEFA) [2] = experiment: as above; details: Rate 1000 g/ha; sprayed one day after sowing; evaluated after 13 days
Description: as §1

[3] = tested on: Echinochloa crus-galli (ECHCG); experiment: as above; details: Rate 1000 g/ha; sprayed one day after sowing; evaluated after 13 days
Description: as §1

Lolium perenne (LOLPE) [4] = experiment: as above; details: Rate 1000 g/ha; sprayed one day after sowing; evaluated after 13 days
Description: as §1

Setaria faberi (SETFA) [5] = experiment: as above; details: Rate 1000 g/ha; sprayed one day after sowing; evaluated after 13 days
Description: as §1

[6] = tested on: Triticum aestivium (TRZAW); experiment: as above; details: Rate 1000 g/ha; sprayed one day after sowing; evaluated after 13 days
Description: as §1

[7] = tested on: Alopecurus myosuroides (ALOMY); experiment: Post-emergence herbicidal activity, glasshouse pot test; details: Rate 1000 g/ha; sprayed after 8 days cultivation; evaluated after 13 days
Description: (§2) Seeds of a variety of test species were sown in standard soil in pots: Triticum aestivium (TRZAW), Avena fatua (AVEFA), Alopecurus myosuroides (ALOMY), Echinochloa crus-galli (ECHCG), Lolium perenne (LOLPE), and Setaria faberi (SETFA). After 8 days cultivation (post-emergence) under controlled conditions in a glasshouse (at 24/16° C., day/night; 14 hours light; 65% humidity), the plants were sprayed with an aqueous spray solution derived from the formulation of the technical active ingredient in acetone/water (50:50) solution containing 0.5% Tween 20 (polyoxyethelyene sorbitan monolaurate, CAS RN 9005-64-5). The test plants were then grown in a glasshouse under controlled conditions (at 24/16° C., day/night; 14 hours light; 65% humidity) and watered twice daily. After 13 days, the test was evaluated (5=total damage to plant; 0=no damage to plant).

Avena fatua (AVEFA) [8] = experiment: as above; details: Rate 1000 g/ha; sprayed after 8 days cultivation; evaluated after 13 days
Description: as §2

[9] = tested on: Echinochloa crus-galli (ECHCG); experiment: as above; details: Rate 1000 g/ha; sprayed after 8 days cultivation; evaluated after 13 days
Description: as §2

Lolium perenne (LOLPE) [10] = experiment: as above; details: Rate 1000 g/ha; sprayed after 8 days cultivation; evaluated after 13 days
Description: as §2

Setaria faberi (SETFA) [11] = experiment: as above; details: Rate 1000 g/ha; sprayed after 8 days cultivation; evaluated after 13 days
Description: as §2

[12] = tested on: Triticum aestivium (TRZAW); experiment: as above; details: Rate 1000 g/ha; sprayed after 8 days cultivation; evaluated after 13 days
Description: as §2

Compound	Control of weed species after pre-emergence application, ALOMY (damage score 0-5) [1]	Control of weed species after pre-emergence application, AVEFA (damage score 0-5) (Avena fatua (AVEFA) [2])	Control of weed species after pre-emergence application, ECHCG (damage score 0-5) [3]	Control of weed species after pre-emergence application, LOLPE (damage score 0-5) (Lolium perenne (LOLPE) [4])	Control of weed species after pre-emergence application, SETFA (damage score 0-5) (Setaria faberi (SETFA) [5])	Control of weed species after pre-emergence application, TRAZW (damage score 0-5) [6]	Control of weed species after post-emergence application, ALOMY (damage score 0-5) [7]	Control of weed species after post-emergence application, AVEFA (damage score 0-5) (Avena fatua (AVEFA) [8])	Control of weed species after post-emergence application, ECHCG (damage score 0-5) [9]	Control of weed species after post-emergence application, LOLPE (damage score 0-5) (Lolium perenne (LOLPE) [10])	Control of weed species after post-emergence application, SETFA (damage score 0-5) (Setaria faberi (SETFA) [11])	Control of weed species after post-emergence application, TRAZW (damage score 0-5) [12]
CC(C)(C)OC(=O)N(C(=O)OC(C)(C)C)c1ncc(-c2cncc(F)c2)nc1C1=CCCCC1 [Compound H15]	0	0	0	0	0	0	0	1	0	0	2	0
CC(C)(C)OC(=O)Nc1ncc(-c2cncc(F)c2)nc1C(F)(F)F [Compound H4]	0	3	4	1	5	0	0	3	5	2	5	1
CC(C)=Cc1nc(-c2cncc(F)c2)cnc1N(C(=O)OC(C)(C)C)C(=O)OC(C)(C)C [Compound H14]	0	0	2	2	3	0	0	1	2	1	4	0
CC(C)(C)OC(=O)N(C(=O)OC(C)(C)C)c1ncc(-c2cncc(F)c2)nc1C#N [Compound H9]	0	1	2	1	5	0	0	3	3	1	5	0
Cc1nc(-c2cncc(F)c2)cnc1N(C)C(=O)OC(C)(C)C [Compound H19, tert-butyl N-(3-methyl-5-(5-fluoropyridin-3-yl)-pyrazin-2-yl)-N-methyl-carbamate]	0	2	4	1	5	0	0	3	4	2	5	0
COC(=O)c1nc(-c2cncc(F)c2)cnc1N(C(=O)OC(C)(C)C)C(=O)OC(C)(C)C [Compound H26]	0	0	0	0	5	0	0	1	3	0	5	1
CC(C)(C)OC(=O)Nc1ncc(-c2cncnc2)nc1C(F)F [Compound H30]	0	0	3	1	4	1	1	3	4	2	4	1
CC(C)(C)OC(=O)N(C(=O)OC(C)(C)C)c1ncc(-c2cncc(F)c2)nc1C(F)(F)F [Compound H5]	0	2	5	1	5	0	0	3	5	2	5	1
COc1nc(-c2cncc(F)c2)cnc1NC(=O)OC(C)(C)C [Compound H7]	0	1	3	0	5	0	0	3	5	2	5	1
